Test results reported in PubChem BioAssay (NCI).
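96-well plates; 48 h exposure; 5 concentrations. Endpoints by linear interpolation between flanking doses. Not reached: highest tested concentration assigned. The concentration for full growth arrest is given as TGI.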

Assays:
Experiment in all cases: growth of human tumour cells (NCI), 48 h
TK-10 renal = system: TK-10 renal
K-562 leukemia = system: K-562 leukemia
MDA-MB-231 breast = system: MDA-MB-231 breast
NCI-H522 lung = system: NCI-H522 lung
SF-268 CNS = system: SF-268 CNS
M14 melanoma = system: M14 melanoma
SNB-75 CNS = system: SNB-75 CNS
T-47D breast = system: T-47D breast
SF-295 CNS = system: SF-295 CNS
HL-60(TB) leukemia = system: HL-60(TB) leukemia
HT29 colon = system: HT29 colon
RXF 393 renal = system: RXF 393 renal
RPMI-8226 leukemia = system: RPMI-8226 leukemia
OVCAR-3 ovarian = system: OVCAR-3 ovarian
NCI-H23 lung = system: NCI-H23 lung
HCT-15 colon = system: HCT-15 colon
HS 578T breast = system: HS 578T breast
SK-MEL-2 melanoma = system: SK-MEL-2 melanoma
SK-MEL-5 melanoma = system: SK-MEL-5 melanoma
OVCAR-8 ovarian = system: OVCAR-8 ovarian
A549 NSCLC = system: A549 NSCLC
PC-3 prostate = system: PC-3 prostate
SK-MEL-28 melanoma = system: SK-MEL-28 melanoma
NCI-H226 lung = system: NCI-H226 lung
OVCAR-5 ovarian = system: OVCAR-5 ovarian
COLO 205 colon = system: COLO 205 colon
MOLT-4 leukemia = system: MOLT-4 leukemia
CAKI-1 renal = system: CAKI-1 renal
KM12 colon = system: KM12 colon
IGROV1 ovarian = system: IGROV1 ovarian
SR leukemia = system: SR leukemia
BT-549 breast = system: BT-549 breast
EKVX NSCLC = system: EKVX NSCLC
NCI-H460 lung = system: NCI-H460 lung
A498 renal = system: A498 renal
SW-620 colon = system: SW-620 colon
HCC-2998 colon = system: HCC-2998 colon
UACC-62 melanoma = system: UACC-62 melanoma
U251 CNS = system: U251 CNS
SNB-19 CNS = system: SNB-19 CNS
MDA-N = system: MDA-N
NCI/ADR-RES ovarian = system: NCI/ADR-RES ovarian
DU-145 prostate = system: DU-145 prostate
SK-OV-3 ovarian = system: SK-OV-3 ovarian
HOP-62 NSCLC = system: HOP-62 NSCLC
MCF7 breast = system: MCF7 breast
CCRF-CEM leukemia = system: CCRF-CEM leukemia
SF-539 CNS = system: SF-539 CNS
OVCAR-4 ovarian = system: OVCAR-4 ovarian
HCT-116 colon = system: HCT-116 colon
HOP-92 NSCLC = system: HOP-92 NSCLC
UO-31 renal = system: UO-31 renal
MALME-3M melanoma = system: MALME-3M melanoma
786-0 renal = system: 786-0 renal
LOX IMVI melanoma = system: LOX IMVI melanoma
UACC-257 melanoma = system: UACC-257 melanoma
SN12C renal = system: SN12C renal
MDA-MB-435 = system: MDA-MB-435
ACHN renal = system: ACHN renal

Q: With `CC(C)(C)C1=CC(=C2C=Cc3ccccc3O2)C=C(C(C)(C)C)C1=O` as the molecule, how does the TGI (TK-10 renal) read?
A: The TGI was 16.5 µM.

Q: What about the TGI (K-562 leukemia) of the same molecule?
A: Its TGI is 29.9 µM.

Q: What about the TGI (MDA-MB-231 breast) of the same molecule?
A: Its TGI is 11.1 µM.

Q: What about the TGI (NCI-H522 lung) of the same molecule?
A: The TGI was 17.8 µM.

Q: What about the TGI (SF-268 CNS) of the same molecule?
A: The TGI was > 34.3 µM.

Q: What about the TGI (M14 melanoma) of the same molecule?
A: The TGI was 10.6 µM.

Q: What about the TGI (SNB-75 CNS) of the same molecule?
A: Its TGI is 40 µM.

Q: And the TGI (T-47D breast)?
A: The TGI was 9.97 µM.

Q: And the TGI (SF-295 CNS)?
A: Its TGI is 18.9 µM.

Q: And the TGI (HL-60(TB) leukemia)?
A: The TGI was 5.92 µM.

Q: And the TGI (HT29 colon)?
A: Its TGI is 17.3 µM.

Q: What about the TGI (RXF 393 renal) of the same molecule?
A: The TGI was 7.71 µM.

Q: And the TGI (RPMI-8226 leukemia)?
A: Its TGI is 5.45 µM.

Q: What about the TGI (OVCAR-3 ovarian) of the same molecule?
A: The TGI was 7.71 µM.

Q: And the TGI (NCI-H23 lung)?
A: Its TGI is 30.8 µM.

Q: What about the TGI (HCT-15 colon) of the same molecule?
A: The TGI was 19.3 µM.

Q: And the TGI (HS 578T breast)?
A: The TGI was > 47.6 µM.

Q: What about the TGI (SK-MEL-2 melanoma) of the same molecule?
A: The TGI was 4.71 µM.

Q: What about the TGI (SK-MEL-5 melanoma) of the same molecule?
A: The TGI was 13.9 µM.

Q: What about the TGI (OVCAR-8 ovarian) of the same molecule?
A: Its TGI is > 51.8 µM.

Q: What about the TGI (A549 NSCLC) of the same molecule?
A: The TGI was 26.2 µM.

Q: What about the TGI (PC-3 prostate) of the same molecule?
A: Its TGI is 16.2 µM.

Q: And the TGI (SK-MEL-28 melanoma)?
A: Its TGI is 22.2 µM.

Q: What about the TGI (NCI-H226 lung) of the same molecule?
A: The TGI was 25.6 µM.

Q: And the TGI (OVCAR-5 ovarian)?
A: Its TGI is 15.3 µM.

Q: And the TGI (COLO 205 colon)?
A: Its TGI is 4.71 µM.

Q: What about the TGI (MOLT-4 leukemia) of the same molecule?
A: The TGI was > 21.3 µM.

Q: What about the TGI (CAKI-1 renal) of the same molecule?
A: Its TGI is 29.6 µM.

Q: And the TGI (KM12 colon)?
A: The TGI was 9.7 µM.

Q: What about the TGI (IGROV1 ovarian) of the same molecule?
A: The TGI was > 52.8 µM.

Q: What about the TGI (SR leukemia) of the same molecule?
A: The TGI was 5.35 µM.

Q: What about the TGI (BT-549 breast) of the same molecule?
A: The TGI was 22.1 µM.

Q: What about the TGI (EKVX NSCLC) of the same molecule?
A: Its TGI is 43.6 µM.

Q: And the TGI (NCI-H460 lung)?
A: The TGI was 4.04 µM.

Q: And the TGI (A498 renal)?
A: Its TGI is 16.4 µM.

Q: What about the TGI (SW-620 colon) of the same molecule?
A: The TGI was 13.9 µM.

Q: And the TGI (HCC-2998 colon)?
A: Its TGI is 2990 nM.

Q: What about the TGI (UACC-62 melanoma) of the same molecule?
A: The TGI was 8.04 µM.

Q: What about the TGI (U251 CNS) of the same molecule?
A: The TGI was 7.51 µM.

Q: What about the TGI (SNB-19 CNS) of the same molecule?
A: The TGI was > 50.7 µM.

Q: What about the TGI (MDA-N) of the same molecule?
A: Its TGI is 7.39 µM.

Q: What about the TGI (NCI/ADR-RES ovarian) of the same molecule?
A: The TGI was 14.8 µM.

Q: What about the TGI (DU-145 prostate) of the same molecule?
A: The TGI was 20.8 µM.

Q: What about the TGI (SK-OV-3 ovarian) of the same molecule?
A: The TGI was > 42.4 µM.

Q: What about the TGI (HOP-62 NSCLC) of the same molecule?
A: The TGI was 20.9 µM.

Q: What about the TGI (MCF7 breast) of the same molecule?
A: Its TGI is 13.1 µM.

Q: What about the TGI (CCRF-CEM leukemia) of the same molecule?
A: The TGI was 6.12 µM.

Q: What about the TGI (SF-539 CNS) of the same molecule?
A: Its TGI is 20 µM.

Q: And the TGI (OVCAR-4 ovarian)?
A: The TGI was 16.8 µM.

Q: What about the TGI (HCT-116 colon) of the same molecule?
A: Its TGI is 11.4 µM.

Q: What about the TGI (HOP-92 NSCLC) of the same molecule?
A: The TGI was > 51 µM.

Q: What about the TGI (UO-31 renal) of the same molecule?
A: The TGI was 21.9 µM.

Q: What about the TGI (MALME-3M melanoma) of the same molecule?
A: The TGI was 14.5 µM.

Q: And the TGI (786-0 renal)?
A: Its TGI is 9.55 µM.

Q: And the TGI (LOX IMVI melanoma)?
A: The TGI was 12.9 µM.

Q: What about the TGI (UACC-257 melanoma) of the same molecule?
A: Its TGI is 13.2 µM.

Q: What about the TGI (SN12C renal) of the same molecule?
A: The TGI was 15.3 µM.

Q: And the TGI (MDA-MB-435)?
A: Its TGI is 5.11 µM.

Q: What about the TGI (ACHN renal) of the same molecule?
A: Its TGI is 19.2 µM.
